Earlier results, collected in patent US9229014B2, “Methods of assessing the need for and the effectiveness of therapy with antioxidants” (priority 2004, dated 2016).

Key:
heart and liver tissues = conditions: ADR-induced rats; for serum and tissue levels of LDH, aminotransferases and ALP: comparison with control group
[1] = lipid-soluble antioxidant

In the case of `COc1cccc2c1C(=O)c1c(O)c3c(c(O)c1C2=O)C[C@@](O)(C(=O)CO)C[C@@H]3O[C@H]1C[C@H](N)[C@H](O)[C@H](C)O1` [ADR, adriamycin], the “serum and tissue levels of LDH, aminotransferases and ALP” value (heart and liver tissues) is listed as “significantly elevated”.

In the case of `CC1=C(/C=C/C(C)=C/C=C/C(C)=C/C=C/C=C(C)/C=C/C=C(C)/C=C/C2=C(C)C[C@@H](O)CC2(C)C)C(C)(C)CCC1` [Beta-Cryptoxanthin], the “antioxidant activity relative to vitamin E” value [1] is given as 3.1 times higher than vitamin E.

For `N.N.O=C([O-])C1(C(=O)[O-])CCC1.[Pt+2]` [Carboplatin], the “reduced to oxidized glutathione ratio, antioxidant enzyme activities” value (inferior colliculus; 4 days after treatment) is listed as “significantly depressed” and the “nitric oxide and lipid peroxidation, xanthine oxidase, and manganese superoxide dismutase activities” value (inferior colliculus; not in the cerebellum) is listed as “significantly increased”.

In the case of `CC1=C[C@H](O)CC(C)(C)[C@H]1/C=C/C(C)=C/C=C/C(C)=C/C=C/C=C(C)/C=C/C=C(C)/C=C/C1=C(C)C[C@@H](O)CC1(C)C` [Lutein], the “antioxidant activity relative to vitamin E” value [1] is listed as 2.3 times higher than vitamin E.

For `CC(C)=CCC/C(C)=C/C=C/C(C)=C/C=C/C(C)=C/C=C/C=C(C)/C=C/C=C(C)/C=C/C=C(\C)CCC=C(C)C` [Lycopene], the “antioxidant activity relative to vitamin E” value [1] is given as 2.8 times higher than vitamin E.

In the case of `CC1=C(/C=C/C(C)=C/C=C/C(C)=C/C=C/C=C(C)/C=C/C=C(C)/C=C/C2=C(C)C[C@@H](O)CC2(C)C)C(C)(C)C[C@H](O)C1` [Zeaxanthin], the “antioxidant activity relative to vitamin E” value [1] is given as 2.8 times higher than vitamin E.

In the case of low molecular weight heparin [LMWH], the “cardiac and hepatic lipid peroxidation induced by ADR” value (heart and liver tissues) is listed as “decreased”, the “rise in serum CPK (cardiotoxicity)” value (heart and liver tissues; LMWH treatment) is listed as “attenuated” and the “serum and tissue levels of LDH, aminotransferases and ALP” value (heart and liver tissues) is listed as “prevented the rise”.
